This passage reports IC50 and melting point results from patent publication US8258160B2, “SCD1 inhibitors triazole and tetrazole compounds” (Novartis AG, priority 2006, dated 2012).

Data set [1] deals with T1, stearoyl-CoA desaturase (SCD1) (Mus musculus, UniProt P13516).
T1 construct: Reactions are started by adding 50 μL of microsomes (1.25 mg/mL); from tissue; host or cells: liver microsomes of male ICR outbred mice on a high-carbohydrate, low-fat diet
T1 sequence (P13516 1-355): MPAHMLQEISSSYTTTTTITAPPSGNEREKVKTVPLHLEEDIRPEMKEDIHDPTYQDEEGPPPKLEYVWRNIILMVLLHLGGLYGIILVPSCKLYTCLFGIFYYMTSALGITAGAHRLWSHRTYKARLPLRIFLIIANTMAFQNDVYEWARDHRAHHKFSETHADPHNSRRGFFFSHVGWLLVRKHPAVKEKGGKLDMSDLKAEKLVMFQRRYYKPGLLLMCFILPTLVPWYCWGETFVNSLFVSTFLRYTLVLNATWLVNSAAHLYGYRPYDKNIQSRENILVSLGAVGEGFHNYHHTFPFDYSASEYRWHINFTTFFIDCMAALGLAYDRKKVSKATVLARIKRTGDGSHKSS
As to the kind of experiment: SCD microsomal assay: release of 3H2O from [9,10-3H]stearoyl-CoA in mouse liver microsomes. It is filed as biochemical. The settings on record: 15 min incubation, 25° C. An excerpt:
The identification of compounds of the invention as SCD inhibitors was readily accomplished using the SCD enzyme and microsomal assay procedure described in Shanklin J. and Summerville C., Proc. Natl. Acad. Sci. USA (1991), Vol. 88, pp. 2510-2514.
The identification of compounds of the invention as SCD inhibitors was readily accomplished using the SCD microsomal assay procedure described in Shanklin J. and Summerville C., Proc. Natl. Acad. Sci. USA (1991), Vol. 88, pp. 2510-2514.
Male ICR outbread mice, on a high-carbohydrate, low fat diet, under light halothane (15% in mineral oil) anesthesia are sacrificed by exsanguination during periods of high enzyme activity. Livers are immediately rinsed with cold 0.9% NaCl solution, weighed and minced with scissors. All procedures are performed at 4° C. unless specified otherwise. Livers are homogenized in a solution (1/3 w/v) containing 0.25 M sucrose, 62 mM potassium phosphate buffer (pH 7.0), 0.15 M KCl, 15 mM N-acetylcysteine, 5 mM MgCl2, and 0.1 mM EDTA using 4 strokes of a Potter-Elvehjem tissue homogenizer. The homogenate is centrifuged at 10,400×g for 20 min to eliminate mitochondria and cellular debris. The supernatant is filtered through a 3-layer cheesecloth and centrifuged at 105,000×g for 60 min. The microsomal pellet is gently resuspended in the same homogenization solution with a small glass/teflon homogenizer and stored at −70° C. The absence of mitochondrial contamination is enzymatically assessed. The protein concentration is measured using bovine serum albumin as the standard.
Desaturase activity is measured as the release of ^3H2O from [9,10-^3H]stearoyl-CoA. Reactions per assay point conditions are as follows: 2 μL 1.5 mM stearoyl-CoA, 0.25 μL 1 mCi/mL ^3H stearoyl CoA, 10 μL 20 mM NADH, 36.75 μL 0.1 M PK buffer (K2HPO4/NaH2PO4, pH 7.2). The test compound or control solution is added in a 1 μL volume. Reactions are started by adding 50 μL of microsomes (1.25 mg/mL). The plates are mixed and after 15 min incubation on a heating block (25° C.), the reactions are stopped by the addition of 10 μL 60% PCA. An aliquot of 100 μL is then transferred to a filter plate pretreated with charcoal and the plate centrifuged at 4000 rpm for 1 min. The flow through containing the ^3H2O released by the SCD1 desaturation reaction is added to scintillation fluid and the radioactivity measured in a Packard TopCount. The data is analysed to identify the IC50 for test compounds and reference compounds. […] The activity was defined in terms of % SCD enzyme activity remaining at the desired concentration of the test compound or as the IC50 concentration. The IC50 (affinity) of the example compounds toward the stearoyl-CoA desaturase is comprised between around 20 μM and 0.0001 μM or between around 5 μM and 0.0001 μM or between around 1 μM and 0.0001 μM.
Background: Liver microsomes are vesicles of endoplasmic reticulum, rich in cytochrome P450 enzymes.

For the molecule `Cc1nc(-c2nnn(Cc3ccc(F)cc3)n2)sc1C(=O)NCc1cccnc1` (single isomer, unassigned) [Example 7.1, 2-(2-(4-Fluorobenzyl)-2H-tetrazol-5-yl)-4-methyl-N-(pyridin-3-ylmethyl)thiazole-5-carboxamide], the melting point (usually the temperature, or range, at which the solid turns liquid) was 148 to 149 °C. Besides, the IC50 (in general, the midpoint of a concentration-inhibition curve) in data set [1] came out at 510 nM. Taken in the same sequence, the figures for `Cc1nc(-c2nnnn2Cc2ccc(C(F)(F)F)cc2)sc1C(=O)NCc1cccnc1` (single isomer, unassigned) [Example 7.2, 4-Methyl-N-(pyridin-3-ylmethyl)-2-(1-(4-(trifluoromethyl)benzyl)-1H-tetrazol-5-yl)thiazole-5-carboxamide] were 175 to 176 °C and 160 nM. Regarding `Cc1nc(-c2nnn(CC3CC3)n2)sc1C(=O)NCc1cccnc1` (single isomer, unassigned) [Example 7.3, 2-(2-(Cyclopropylmethyl)-2H-tetrazol-5-yl)-4-methyl-N-(pyridin-3-ylmethyl)thiazole-5-carboxamide], the melting point lay in the range of 149 to 150 °C. This molecule had an IC50 in data set [1] of 310 nM. The molecule `Cc1nc(-c2cn(CCc3ccc(F)cc3)nn2)sc1C(=O)NCc1ccccc1` [Example 1, N-benzyl-2-(1-(4-fluorophenethyl)-1H-1,2,3-triazol-4-yl)-4-methylthiazole-5-carboxamide] had a melting point of 181 to 182 °C. Also, in data set [1], the half-inhibitory concentration (IC50) is 20 nM. Taken in the same sequence, the figures for `Cc1nc(-c2cn(Cc3ccccc3)nn2)sc1C(=O)NCc1ccccc1` [Example 1.1, N-benzyl-2-(1-benzyl-1H-1,2,3-triazol-4-yl)-4-methylthiazole-5-carboxamide] were 108 to 109 °C and 30 nM. The molecule `Cc1nc(-c2cn(CCc3ccc(F)cc3)nn2)sc1C(=O)NCc1cccnc1` [Example 4.3, 2-(1-(4-fluorophenethyl)-1H-1,2,3-triazol-4-yl)-4-methyl-N-(pyridin-3-ylmethyl)thiazole-5-carboxamide] yielded a melting point of 149 to 150 °C. Also, in data set [1], the IC50 worked out at 120 nM. The corresponding values for `Cc1nc(-n2cc(Cc3ccccc3)nn2)sc1C(=O)NCc1ccccc1` [Example 10.1, N-benzyl-2-(4-benzyl-1H-1,2,3-triazol-1-yl)-4-methylthiazole-5-carboxamide] are 139 to 141 °C and 60 nM.

As for `Cc1nc(-n2cc(CCC3CCCCC3)nn2)sc1C(=O)NCc1ccccc1` [Example 10.14, N-benzyl-2-(4-(2-cyclohexylethyl)-1H-1,2,3-triazol-1-yl)-4-methylthiazole-5-carboxamide], the melting point was 82 to 84 °C. This molecule came in with an IC50 in data set [1] of 240 nM. As for `Cc1nc(-n2cc(CCc3ccccc3)nn2)sc1C(=O)NCc1cccnc1` [Example 14.2, 4-methyl-2-(4-phenethyl-1H-1,2,3-triazol-1-yl)-N-(pyridin-3-ylmethyl)thiazole-5-carboxamide], the melting point lay within 114 to 116 °C.

`Cc1nc(-n2cc(C(=O)NCc3ccccc3)nn2)sc1C(=O)NCc1ccccc1` [Example 18, N-benzyl-2-(4-(benzylcarbamoyl)-1H-1,2,3-triazol-1-yl)-4-methylthiazole-5-carboxamide] gave a melting point of 178 to 180 °C. As for `Cc1nc(-n2cc(C(=O)NCc3ccc(F)cc3)nn2)sc1C(=O)NCc1ccccc1` [Example 18.1, N-benzyl-2-(4-(4-fluorobenzylcarbamoyl)-1H-1,2,3-triazol-1-yl)-4-methylthiazole-5-carboxamide], the melting point is 198 to 201 °C. This molecule also showed an IC50 in data set [1] of 10 nM.

In turn, `Cc1nc(-n2nnc(C(=O)NCc3ccccc3)c2C)sc1C(=O)NCc1ccccc1` [Example 18.2, N-benzyl-2-(4-(benzylcarbamoyl)-5-methyl-1H-1,2,3-triazol-1-yl)-4-methylthiazole-5-carboxamide] gave a melting point of 183 to 186 °C. Still for that read-out and setting: in the case of `Cc1cc(-n2nnc(-c3ccccc3)n2)sc1C(=O)NCc1ccccc1` [Example 21, N-benzyl-3-methyl-5-(5-phenyl-2H-tetrazol-2-yl)thiophene-2-carboxamide] it was 155 to 158 °C; in that of `Cc1cc(-c2ncn(Cc3ccc(F)cc3)n2)sc1C(=O)NCc1ccccc1` [Example 23, N-benzyl-5-(1-(4-fluorobenzyl)-1H-1,2,4-triazol-3-yl)-3-methylthiophene-2-carboxamide], 128 to 130 °C; in that of `Cc1cc(-c2ncn(Cc3ccc(F)cc3)n2)sc1C(=O)NCc1cccnc1` [Example 23.1, 5-(1-(4-fluorobenzyl)-1H-1,2,4-triazol-3-yl)-3-methyl-N-(pyridin-3-ylmethyl)thiophene-2-carboxamide], 154 to 155 °C.

In the case of `Cc1cc(-c2n[nH]c(Cc3ccccc3)n2)sc1C(=O)NCc1cccnc1` [Example 26, 5-(5-benzyl-1H-1,2,4-triazol-3-yl)-3-methyl-N-(pyridin-3-ylmethyl)thiophene-2-carboxamide], the melting point was 82 °C (dec.). The IC50 in data set [1] was found to be 300 nM.

As for `Cc1nc(-c2cc(Cc3ccccc3)no2)sc1C(=O)NCc1ccccc1` [Example 27, N-benzyl-2-(3-benzylisoxazol-5-yl)-4-methylthiazole-5-carboxamide], the melting point fell in the range of 103 to 104 °C. For the same molecule, it took 600 nM to reach half-maximal inhibition in data set [1] (IC50). Regarding `Cc1nc(-c2cc(CCc3ccccc3)no2)sc1C(=O)NCc1ccccc1` [Example 27.1, N-benzyl-4-methyl-2-(3-phenethylisoxazol-5-yl)thiazole-5-carboxamide], the melting point was 114 to 115 °C. With `Cc1nc(-c2cn(CC(F)(F)c3ccccc3)nn2)sc1C(=O)NCc1cccnc1` [Example 30, 2-(1-(2,2-difluoro-2-phenylethyl)-1H-1,2,3-triazol-4-yl)-4-methyl-N-(pyridin-3-ylmethyl)thiazole-5-carboxamide], the melting point is 150 to 151 °C. On the same count and under the same terms, in the case of `Cc1nc(-n2[nH]c(C)c(Cc3ccc(Cl)cc3)c2=O)sc1C(=O)NCc1cccnc1` [Example 33, 2-(4-(4-chlorobenzyl)-3-methyl-5-oxo-2,5-dihydro-1H-pyrazol-1-yl)-4-methyl-N-(pyridin-3-ylmethyl)thiazole-5-carboxamide] it was 215 to 217 °C; in that of `Cc1nc(-c2noc(Cc3ccccc3)n2)sc1C(=O)NCc1ccccc1` [Example 34, N-benzyl-2-(5-benzyl-1,2,4-oxadiazol-3-yl)-4-methylthiazole-5-carboxamide], 124 to 125 °C. Same read-out and setting: the same measure for `Cc1nc(-c2cnc(Cc3ccccc3)o2)sc1C(=O)NCc1ccccc1` [Example 36, N-benzyl-2-(2-benzyloxazol-5-yl)-4-methylthiazole-5-carboxamide]: 141 to 142 °C.
